Laboratory results from patent publication US20040219214A1, “Tissue reactive compounds and compositions and uses thereof” (Angiotech International AG, priority 2002, published 2004).

Experiments:
[1] = test system: nitric oxide production in RAW 264.7 cells; experiment: Nitric oxide production by macrophages (Greiss assay); assay type: cell-based, murine; settings: Mus musculus, RAW264.7; IFNγ and LPS stimulation, 24 hours; average of n=4 experiments
Description: The murine macrophage cell line RAW 264.7 is trypsinized to remove cells from flasks and plated in individual wells of a 6-well plate. Approximately 2×10^6 cells are plated in 2 mL of media containing 5% heat-inactivated fetal bovine serum (FBS). RAW 264.7 cells are incubated at 37° C. for 1.5 hours to allow adherence to plastic. Mitoxantrone is prepared in DMSO at a concentration of 10^−2 M and serially diluted 10-fold to give a range of stock concentrations (10^−8 M to 10^−2 M). Media is then removed and cells are incubated in 1 ng/mL of recombinant murine IFNγ and 5 ng/mL of LPS with or without mitoxantrone in fresh media containing 5% FBS. Mitoxantrone is added to cells by directly adding mitoxantrone DMSO stock solutions, prepared earlier, at a 1/1000 dilution, to each well. Plates containing IFNγ, LPS plus or minus mitoxantrone are incubated at 37° C. for 24 hours (Chem. Ber. (1879) 12: 426; J. AOAC (1977) 60-594; Ann. Rev. Biochem. (1994) 63: 175).
At the end of the 24 hour period, supernatants are collected from the cells and assayed for the production of nitrites. […] Optical density is read immediately on microplate spectrophotometer at 562 nm absorbance. Absorbance over triplicate wells is averaged after subtracting background and concentration values are obtained from the nitrite standard curve (1 μM to 2 mM). […]

[2] = test system: human fibroblasts; experiment: Screening assay for effect on cell proliferation (CYQUANT); assay type: cell-based; settings: Fibroblast, 72 hours incubation, average of n=4 experiments
Description: Fibroblasts at 70-90% confluency are trypsinized, replated at 600 cells/well in media in 96-well plates and allowed to attachment overnight. Mitoxantrone is prepared in DMSO at a concentration of […] and diluted 10-fold to give a range of stock concentrations (10^−8 M to 10^−2 M). Drug dilutions are diluted 1/1000 in media and added to cells to give a total volume of 200 μL/well. Each drug concentration is tested in triplicate wells. Plates containing fibroblasts and mitoxantrone are incubated at 37° C. for 72 hours (In vitro toxicol. (1990) 3: 219; Biotech. Histochem. (1993) 68: 29; Anal. Biochem. (1993)213: 426).
To terminate the assay, the media is removed by gentle aspiration. A 1/400 dilution of CYQUANT 400× GR dye indicator (Molecular Probes; Eugene, Oreg.) is added to 1× Cell Lysis buffer, and 200 μL of the mixture is added to the wells of the plate. Plates are incubated at room temperature, protected from light for 3-5 minutes. Fluorescence is read in a fluorescence microplate reader at ˜480 nm excitation wavelength and ˜520 nm emission maxima. Inhibitory concentration of 50% (IC50) is determined by taking the average of triplicate wells and comparing average relative fluorescence units to the DMSO control. An average of n=4 replicate experiments is used to determine IC50 values. (IC50=20 nM for proliferation of human fibroblasts).

[3] = test system: TNFα production by THP-1 cells; experiment: TNF-alpha production by macrophages (ELISA); assay type: cell-based, human; settings: opsonized zymosan stimulation, 24 hours; average of n=4 experiments
Description: The human macrophage cell line, THP-1 is plated in a 12 well plate such that each well contains 1×10^6 cells in 2 mL of media containing 10% FCS. Opsonized zymosan is prepared by resuspending 20 mg of zymosan A in 2 mL of ddH2O and homogenizing until a uniform suspension is obtained. Homogenized zymosan is pelleted at 250 g and resuspended in 4 mL of human serum for a final concentration of 5 mg/mL. and incubated in a 37° C. water bath for 20 minutes to enable opsonization. Bay 11-7082 is prepared in DMSO at a concentration of 10^−2 M and serially diluted 10-fold to give a range of stock concentrations (10^−8 M to 10^−2 M) (J. Immunol. (2000) 165: 411-418; J. Immunol. (2000) 164: 4804-4811; J. Immunol Meth. (2000) 235 (1-2): 33-40).
THP-1 cells are stimulated to produce TNFα by the addition of 1 mg/mL opsonized zymosan. […]
After a 24 hour stimulation, supernatants are collected to quantify TNFα production. TNFα concentrations in the supernatants are determined by ELISA using recombinant human TNFα to obtain a standard curve. […] The dilution of Capture Antibody used is lot-specific and is determined empirically. […] Stop Solution (2 N H2SO4) is then added to the wells and a yellow colour reaction is read at 450 nm with A correction at 570 nm. Mean absorbance is determined from triplicate data readings and the mean background is subtracted. […]

| Structure (SMILES) | IC50 [1] [nM] | IC50 [2] [nM] | IC50 [3] [nM] |
| --- | --- | --- | --- |
| O=C1c2c(O)ccc(O)c2C(=O)c2c(NCCNCCO)ccc(NCCNCCO)c21 [Mitoxantrone, 9,10-Anthracenedione, 1,4-dihydroxy-5,8-bis((2-((2-hydroxyethyl)amino]ethyl]amino]-] | 927 | 20 |  |
| Cc1ccc(S(=O)(=O)/C=C/C#N)cc1 [Bay 11-7082] |  |  | 810 |
